Where a SMILES comes first, the peptide text is derived from it. [ ]: non-standard residue; d: D form. The star is where a group is joined. dPhe(4-NHCONH2) = NC(=O)Nc1ccc(C[C@@H](N)C(=O)O)cc1; Dihydroorotyl(S) = O=C1C[C@@H](C(=O)*)NC(=O)N1; dPhe(4-Cl) = N[C@H](Cc1ccc(Cl)cc1)C(=O)O; Phe(4-NH2) = Nc1ccc(C[C@H](N)C(=O)O)cc1; d2Nal = N[C@H](Cc1ccc2ccccc2c1)C(=O)O; Lys(iPr) = CC(C)NCCCC[C@H](N)C(=O)O; NMeY = CN[C@@H](Cc1ccc(O)cc1)C(=O)O; d3Pal = N[C@H](Cc1cccnc1)C(=O)O
How the values were obtained:
[1] = human, in vivo; cited from earlier work
[2] = system: testosterone; test: Plasma level needed to prevent testosterone breakthrough (rat); assay type: in vivo; details: between doses
Experimental: In the rat, the mean plasma concentration level of degarelix which is necessary to ensure there is no testosterone breakthrough between doses is 6 ng/mL, and this value was therefore selected as the target level for the present work. In other words, if the mean plasma concentration of degarelix is 6 ng/mL or greater after administration of a given formula, this is a good indicator that the formulation would be effective (for the duration of the study).

[3] = Target plasma level calculated for pigs; assay type: in vivo, pig
Excerpt: These very initial studies in this pig model are understood to represent proof of concept that formulations of the invention may be able to provide sustained release for up to three months, especially after IM administration, in a human model.

[4] = in vivo

Structure (SMILES) | allergic reaction risk [1] | mean plasma concentration necessary to ensure no testosterone breakthrough [2] | target level of mean degarelix concentration [3] | efficacy and tolerability [4]
CC(=O)N[C@H](Cc1ccc2ccccc2c1)C(=O)N[C@H](Cc1ccc(Cl)cc1)C(=O)N[C@H](Cc1cccnc1)C(=O)N[C@@H](CO)C(=O)N(C)[C@@H](Cc1ccc(O)cc1)C(=O)N[C@H](CC(N)=O)C(=O)N[C@@H](CC(C)C)C(=O)N[C@@H](CCCCNC(C)C)C(=O)N1CCC[C@H]1C(=O)N[C@H](C)C(N)=O [Abarelix] (Ac-[d2Nal][dPhe(4-Cl)][d3Pal]S[NMeY][dN]L[Lys(iPr)]P[dA]-NH2) | risk of serious allergic reactions, including anaphylaxis with hypotension and syncope | – | – | –
CC(=O)N[C@H](Cc1ccc2ccccc2c1)C(=O)N[C@H](Cc1ccc(Cl)cc1)C(=O)N[C@H](Cc1cccnc1)C(=O)N[C@@H](CO)C(=O)N[C@@H](Cc1ccc(NC(=O)[C@@H]2CC(=O)NC(=O)N2)cc1)C(=O)N[C@H](Cc1ccc(NC(N)=O)cc1)C(=O)N[C@@H](CC(C)C)C(=O)N[C@@H](CCCCNC(C)C)C(=O)N1CCC[C@H]1C(=O)N[C@H](C)C(N)=O [degarelix, D-Alaninamide, N-acetyl-3-(2-naphthalenyl)-D-alanyl-4-chloro-D-phenylalanyl-3-(3-pyridinyl)-D-alanyl-L-seryl-4-[[[(4S)-hexahydro-2,6-dioxo-4-pyrimidinyl]carbonyl]amino]-L-phenylalanyl-4-[(aminocarbonyl)amino]-D-phenylalanyl-L leucyl-N6-(1-methylethyl)-L-lysyl-L-prolyl] (Ac-[d2Nal][dPhe(4-Cl)][d3Pal]S[Phe(4-NH2)](Dihydroorotyl(S))[dPhe(4-NHCONH2)]L[Lys(iPr)]P[dA]-NH2) | – | 6 ng/mL | 8 ng/mL | effective and well-tolerated without evidence of systemic allergic reactions
